Key:
Hepatotoxicity [1] = tested on: Hepatotoxicity;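 as to HepSE cirrhosis: cirrhosis hepatic side effect score taken from the DILIps (drug-induced liver injury prediction) training set; call rule not given here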;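 as to HepSE elevated liver function tests: hepatic side effect score for raised liver function tests, as recorded in the DILIps training set used for predicting drug-induced liver injury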; as to HepSE hepatic failure: call rule not given here;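 as to HepSE hepatic necrosis: score of hepatic side effects for hepatic necrosis, drawn from the training data of DILIps, a prediction system for drug-induced liver injury; call rule not given here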;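 as to HepSE liver fatty: hepatic side effect score for fatty liver, taken from the DILIps training set for predicting drug-induced liver injury; call rule not given here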;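 as to HepSE liver function tests abnormal: hepatic side effect score taken from the DILIps (drug-induced liver injury prediction system) training data, here covering abnormal liver function test findings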
Hepatotoxicity [2] = tested on: Hepatotoxicity; remark: listed apart in the source;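 as to HepSE cirrhosis: cirrhosis hepatic side effect score taken from the DILIps (drug-induced liver injury prediction) training set; call rule not given here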;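 as to HepSE elevated liver function tests: hepatic side effect score for raised liver function tests, as recorded in the DILIps training set used for predicting drug-induced liver injury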; as to HepSE hepatic failure: call rule not given here;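 as to HepSE hepatic necrosis: score of hepatic side effects for hepatic necrosis, drawn from the training data of DILIps, a prediction system for drug-induced liver injury; call rule not given here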;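 as to HepSE liver fatty: hepatic side effect score for fatty liver, taken from the DILIps training set for predicting drug-induced liver injury; call rule not given here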;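 as to HepSE liver function tests abnormal: hepatic side effect score taken from the DILIps (drug-induced liver injury prediction system) training data, here covering abnormal liver function test findings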
Hepatotoxicity [3] = tested on: Hepatotoxicity; remark: listed apart in the source;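 as to HepSE cirrhosis: cirrhosis hepatic side effect score taken from the DILIps (drug-induced liver injury prediction) training set; call rule not given here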;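 as to HepSE elevated liver function tests: hepatic side effect score for raised liver function tests, as recorded in the DILIps training set used for predicting drug-induced liver injury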; as to HepSE hepatic failure: call rule not given here;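 as to HepSE hepatic necrosis: score of hepatic side effects for hepatic necrosis, drawn from the training data of DILIps, a prediction system for drug-induced liver injury; call rule not given here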;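 as to HepSE liver fatty: hepatic side effect score for fatty liver, taken from the DILIps training set for predicting drug-induced liver injury; call rule not given here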;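 as to HepSE liver function tests abnormal: hepatic side effect score taken from the DILIps (drug-induced liver injury prediction system) training data, here covering abnormal liver function test findings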
Hepatotoxicity [4] = tested on: Hepatotoxicity; remark: listed apart in the source;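 as to HepSE cirrhosis: cirrhosis hepatic side effect score taken from the DILIps (drug-induced liver injury prediction) training set; call rule not given here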;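 as to HepSE elevated liver function tests: hepatic side effect score for raised liver function tests, as recorded in the DILIps training set used for predicting drug-induced liver injury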; as to HepSE hepatic failure: call rule not given here;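 as to HepSE hepatic necrosis: score of hepatic side effects for hepatic necrosis, drawn from the training data of DILIps, a prediction system for drug-induced liver injury; call rule not given here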;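 as to HepSE liver fatty: hepatic side effect score for fatty liver, taken from the DILIps training set for predicting drug-induced liver injury; call rule not given here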;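 as to HepSE liver function tests abnormal: hepatic side effect score taken from the DILIps (drug-induced liver injury prediction system) training data, here covering abnormal liver function test findings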
Hepatotoxicity [5] = tested on: Hepatotoxicity; remark: listed apart in the source; as to HepSE hepatic failure: call rule not given here
Hepatotoxicity [6] = tested on: Hepatotoxicity; remark: listed apart in the source; as to HepSE hepatic failure: call rule not given here
Hepatotoxicity [7] = tested on: Hepatotoxicity; remark: listed apart in the source
Hepatotoxicity [8] = tested on: Hepatotoxicity; remark: listed apart in the source
Hepatotoxicity [9] = tested on: Hepatotoxicity; remark: listed apart in the source
Hepatotoxicity [10] = tested on: Hepatotoxicity; remark: listed apart in the source
Hepatotoxicity [11] = tested on: Hepatotoxicity; remark: listed apart in the source
Hepatotoxicity [12] = tested on: Hepatotoxicity; remark: listed apart in the source
Hepatotoxicity [13] = tested on: Hepatotoxicity; remark: listed apart in the source
Hepatotoxicity [14] = tested on: Hepatotoxicity; remark: listed apart in the source

Row | Structure (SMILES) | HepSE_liver fatty (Hepatotoxicity [1]) | HepSE_hepatic failure (Hepatotoxicity [4]) | HepSE_cirrhosis (Hepatotoxicity [5]) | HepSE_hepatic necrosis (Hepatotoxicity [6]) | HepSE_hepatomegaly (Hepatotoxicity [7]) | HepSE_jaundice (Hepatotoxicity [8]) | HepSE_bilirubinemia (Hepatotoxicity [9]) | HepSE_Combined Scores (Hepatotoxicity [10]) | HepSE_liver fatty (Hepatotoxicity [1]; Liver) | HepSE_hepatic failure (Hepatotoxicity [4]; Liver) | HepSE_cirrhosis (Hepatotoxicity [5]; Liver) | HepSE_hepatic necrosis (Hepatotoxicity [6]; Liver) | HepSE_hepatomegaly (Hepatotoxicity [7]; Liver) | HepSE_jaundice (Hepatotoxicity [8]; Liver) | HepSE_bilirubinemia (Hepatotoxicity [9]; Liver) | HepSE_Combined Scores (Hepatotoxicity [10]; Liver) | HepSE_hepatitis (Hepatotoxicity [11]; Liver) | HepSE_cholecystitis (Hepatotoxicity [12]; Liver) | HepSE_liver disease (Hepatotoxicity [13]; Liver) | HepSE_cholelithiasis (Hepatotoxicity [14]; Liver) | further results
1 | CCCCc1nc(Cl)c(CO)n1Cc1ccc(-c2ccccc2-c2nn[nH]n2)cc1 [LOSARTAN] | 0 | 0 | 0 | 0 | 0 | 1 | 0 | 2 | – | – | – | – | – | – | – | – | – | – | – | – | HepSE_elevated liver function tests (Hepatotoxicity [2]): 0; HepSE_liver function tests abnormal (Hepatotoxicity [3]): 0; HepSE_hepatitis (Hepatotoxicity [11]): 1; HepSE_cholecystitis (Hepatotoxicity [12]): 0; HepSE_liver disease (Hepatotoxicity [13]): 0; HepSE_cholelithiasis (Hepatotoxicity [14]): 0
2 | COc1cc([C@@H]2c3cc4c(cc3[C@@H](O[C@@H]3O[C@@H]5CO[C@@H](C)O[C@H]5[C@H](O)[C@H]3O)[C@H]3COC(=O)[C@H]23)OCO4)cc(OC)c1O [ETOPOSIDE] | – | – | – | – | – | – | – | – | 0 | 0 | 0 | 0 | 0 | 0 | 0 | 0 | 0 | 0 | 0 | 0 | HepSE_elevated liver function tests (Hepatotoxicity [2]; Liver): 0; HepSE_liver function tests abnormal (Hepatotoxicity [3]; Liver): 0
3 | CC[C@@H]1C(=O)OC[C@@H]1Cc1cncn1C [PILOCARPINE] | 0 | 0 | 0 | 0 | 0 | 0 | 1 | 4 | – | – | – | – | – | – | – | – | – | – | – | – | HepSE_elevated liver function tests (Hepatotoxicity [2]): 0; HepSE_liver function tests abnormal (Hepatotoxicity [3]): 1; HepSE_hepatitis (Hepatotoxicity [11]): 1; HepSE_cholecystitis (Hepatotoxicity [12]): 0; HepSE_liver disease (Hepatotoxicity [13]): 0; HepSE_cholelithiasis (Hepatotoxicity [14]): 1
4 | CC[C@@]1(O)C(=O)OCc2c1cc1n(c2=O)Cc2cc3c(CN(C)C)c(O)ccc3nc2-1 [TOPOTECAN] | 0 | 0 | 0 | 0 | 0 | 0 | 1 | 1 | – | – | – | – | – | – | – | – | – | – | – | – | HepSE_elevated liver function tests (Hepatotoxicity [2]): 0; HepSE_liver function tests abnormal (Hepatotoxicity [3]): 0; HepSE_hepatitis (Hepatotoxicity [11]): 0; HepSE_cholecystitis (Hepatotoxicity [12]): 0; HepSE_liver disease (Hepatotoxicity [13]): 0; HepSE_cholelithiasis (Hepatotoxicity [14]): 0
5 | COCCCC/C(=N\OCCN)c1ccc(C(F)(F)F)cc1 [FLUVOXAMINE] | 0 | 0 | 0 | 0 | 0 | 1 | 0 | 5 | – | – | – | – | – | – | – | – | – | – | – | – | HepSE_elevated liver function tests (Hepatotoxicity [2]): 0; HepSE_liver function tests abnormal (Hepatotoxicity [3]): 1; HepSE_hepatitis (Hepatotoxicity [11]): 1; HepSE_cholecystitis (Hepatotoxicity [12]): 1; HepSE_liver disease (Hepatotoxicity [13]): 0; HepSE_cholelithiasis (Hepatotoxicity [14]): 1
6 | CN1[C@@H]2CC[C@H]1C[C@@H](OC(=O)C(CO)c1ccccc1)C2 (some centres undefined) [ATROPINE] | – | – | – | – | – | – | – | – | 0 | 0 | 0 | 0 | 0 | 0 | 0 | 0 | 0 | 0 | 0 | 0 | –
7 | Cc1ccc(NC(=O)c2ccc(CN3CCN(C)CC3)cc2)cc1Nc1nccc(-c2cccnc2)n1 [IMATINIB] | 0 | 1 | 0 | 1 | 0 | 1 | 0 | 4 | – | – | – | – | – | – | – | – | – | – | – | – | HepSE_hepatitis (Hepatotoxicity [11]): 1; HepSE_cholecystitis (Hepatotoxicity [12]): 0; HepSE_liver disease (Hepatotoxicity [13]): 0; HepSE_cholelithiasis (Hepatotoxicity [14]): 0
8 | CC(C)c1c(C(=O)Nc2ccccc2)c(-c2ccccc2)c(-c2ccc(F)cc2)n1CC[C@@H](O)C[C@@H](O)CC(=O)O [ATORVASTATIN] | – | – | – | – | – | – | – | – | 0 | 0 | 0 | 0 | 0 | 1 | 0 | 3 | 1 | 0 | 0 | 0 | –
9 | O=C(O)COCCN1CCN(C(c2ccccc2)c2ccc(Cl)cc2)CC1 (centres undefined) [CETIRIZINE] | – | – | – | – | – | – | – | – | 0 | 0 | 0 | 0 | 0 | 1 | 0 | 2 | 1 | 0 | 0 | 0 | –
10 | O=C(O)c1cn(C2CC2)c2cc(N3CCNCC3)c(F)cc2c1=O [CIPROFLOXACIN] | – | – | – | – | – | – | – | – | 0 | 1 | 0 | 1 | 1 | 1 | 1 | 7 | 1 | 0 | 0 | 0 | –
11 | COc1ccc2cc([C@H](C)C(=O)O)ccc2c1 [NAPROXEN] | – | – | – | – | – | – | – | – | 0 | 1 | 0 | 0 | 0 | 1 | 0 | 6 | 1 | 1 | 0 | 1 | –
12 | CN1CC[C@]23c4c5ccc(O)c4O[C@H]2[C@@H](O)C=C[C@H]3[C@H]1C5 [MORPHINE] | – | – | – | – | – | – | – | – | 0 | 0 | 0 | 0 | 0 | 0 | 0 | 1 | 0 | 0 | 0 | 0 | –
13 | CCCNCC(O)COc1ccccc1C(=O)CCc1ccccc1 (centres undefined) [PROPAFENONE] | – | – | – | – | – | – | – | – | 0 | 0 | 0 | 0 | 1 | 1 | 0 | 4 | 1 | 0 | 0 | 0 | –
14 | CC1=C(C(=O)O)N2C(=O)[C@@H](NC(=O)[C@H](N)c3ccccc3)[C@H]2SC1 [CEPHALEXIN ANHYDROUS] | – | – | – | – | – | – | – | – | 0 | 0 | 0 | 0 | 0 | 1 | 0 | 2 | 1 | 0 | 0 | 0 | –
15 | CC(C)(C(=O)O)c1ccc(C(O)CCCN2CCC(C(O)(c3ccccc3)c3ccccc3)CC2)cc1 (centres undefined) [FEXOFENADINE] | – | – | – | – | – | – | – | – | 0 | 0 | 0 | 0 | 0 | 0 | 0 | 0 | 0 | 0 | 0 | 0 | –
16 | Clc1ccc2c(c1)CCc1cccnc1C2=C1CCNCC1 [DESLORATADINE] | 0 | 0 | 0 | 0 | 0 | 0 | 0 | 1 | – | – | – | – | – | – | – | – | – | – | – | – | HepSE_hepatitis (Hepatotoxicity [11]): 1; HepSE_cholecystitis (Hepatotoxicity [12]): 0; HepSE_liver disease (Hepatotoxicity [13]): 0; HepSE_cholelithiasis (Hepatotoxicity [14]): 0
17 | CCOC(=O)N1CCC(=C2c3ccc(Cl)cc3CCc3cccnc32)CC1 [LORATADINE] | – | – | – | – | – | – | – | – | 0 | 0 | 0 | 0 | 0 | 0 | 0 | 0 | 0 | 0 | 0 | 0 | –
18 | CCN(CC)CC(=O)Nc1c(C)cccc1C [LIDOCAINE] | – | – | – | – | – | – | – | – | 0 | 0 | 0 | 0 | 0 | 0 | 0 | 0 | 0 | 0 | 0 | 0 | –
19 | CN1C(C(=O)Nc2ccccn2)=C(O)c2ccccc2S1(=O)=O [PIROXICAM] | 0 | 1 | 0 | 0 | 0 | 1 | 0 | 3 | – | – | – | – | – | – | – | – | – | – | – | – | HepSE_elevated liver function tests (Hepatotoxicity [2]): 0; HepSE_liver function tests abnormal (Hepatotoxicity [3]): 0; HepSE_cholecystitis (Hepatotoxicity [12]): 0; HepSE_liver disease (Hepatotoxicity [13]): 0; HepSE_cholelithiasis (Hepatotoxicity [14]): 0
